Results from ChEMBL document CHEMBL5050860, “Substrate selective hsd17b13 inhibitors and uses thereof” (2021).

Tests used:
[1] = Inhibition of His-tagged HSD17B13 (unknown origin) using estradiol as substrate incubated for 2 hrs and measured by LC-MS/MS analysis; design: species or system Homo sapiens
Homo sapiens = species on record: Homo sapiens; test: Ratio of Ki for inhibition of His-tagged HSD17B13 (unknown origin) using LTB3 as substrate to Ki for His-tagged HSD17B13 (unknown origin) using estradiol as substrate
[2] = Inhibition of His-tagged HSD17B13 (unknown origin) using LTB3 as substrate incubated for 1 hr and measured after 1 hr by fluorescence based assay; design: species or system Homo sapiens

Ki [1] [µM]	Ratio Ki (Homo sapiens)	Ki [2] [nM]	Structure (SMILES)
0.32	8.8	2810	O=C1c2ccc(O)cc2C(=O)c2ccc(O)cc21 [ANTHRAFLAVICACID]
7.58	0.14	1070	Cc1cc(-c2ccc(-c3cccc(O)c3)s2)ccc1O
8.55	> 3.5	> 30000	Oc1cccc(-c2nccc3cc(O)ccc23)c1
> 30	< 0.091	2720	CCOC(=O)c1cccc(-n2c(-c3ccncc3)nc3cc(OC)ccc32)c1
